From US6696280B2, “Candida geranylgeranyl-protein transferase polypetide, compositions and methods related thereto” (GPC Biotech, Inc., priority 1996, dated 2004)

How the values were obtained:
PKC1 [1] = molecular target: T1, PKC1 (Saccharomyces cerevisiae, UniProt P24583); assay: PKC1 protein kinase assay with synthetic Bck1 peptide; format: biochemical; conditions: for Stimulation of PKC1 by cofactor: in the presence of GTP-bound GST-Rho1
T1 construct: made in house; host or cells: PKC1-HA immunoprecipitated from S. cerevisiae extract; GST-Rho1 from baculovirus-infected Sf9 cells
Method: (§1) FIGS. 4A-4B. Rho1 allows cofactors to activate PKC1. FIG. 4A. Phosphorylation of synthetic Bck1 peptide by PKC1^HA immunoprecipitated from 50 μg of soluble yeast cell extract protein. Recombinant GST-Rho1 or GST-Cdc42 (1 μg) was preloaded with the indicated guanine nucleotide. Cofactors (80 μg/ml PS, 8 μg/ml DAG, and 100 μM CaCl2) were added to the reaction where indicated. Lanes 1 and 2 are control reactions with no GTPase. Mean and standard error for three experiments is shown. FIG. 4B. PS alone is sufficient to stimulate PKC1 fully in the presence of Rho1. Phosphorylation of Bck1 peptide by PKC1^HA in the presence of GTPγS-bound GST-Rho1 and the indicated cofactors. Conditions were as in FIG. 4A, except for PMA (16 ng/ml). Concentrations of PS as low as 8 μg/ml fully activated PKC1 (data not shown).
(§2) Yeast extract preparation, immunoprecipitation, immunodetection and protein kinase assays of Mpk1^HA were conducted as described previously (4). Preparation of cell extracts and immunoprecipitations for experiments with ^HARho1 were carried out as in (4) with some modifications. Lysis buffer without ρ-nitrophenyl phosphate and with 1% NP-40 was used. The extract (700 μg protein) was precleared by incubation with 20 μl of a 50% suspension of protein A-sepharose for 1 h prior to immunoprecipitation to eliminate non-specific binding of proteins to immunecomplexes. Beads were boiled in SDS-PAGE sample buffer, and samples were applied to 7.5% (for PKC1 blots) or 15% (for ^HARho1 blots) SDS-PAGE gels. For PKC1 kinase assays, all as described previously (5), except for the addition of recombinant GTPases (see below). A synthetic peptide corresponding to the sequence surrounding Ser939 of Bck1, a phosphorylation site for PKC 1, was used as substrate in PKC 1 kinase assays (5).
(§3) Recombinant Rho1 and Cdc42. Recombinant GST-Rho 1 and GST-Cdc42 were expressed and purified from baculovirus-infected insect (Sf9) cells, as described (23). For in vitro association with PKC1^HA, GST-Rho1 was not eluted from the glutathione agarose beads used for purification. GST-Rho1-bound beads were incubated with cell extract in immunoprecipitation buffer (4) for 5 h at 4° C., followed by 3 washes with this buffer. For use in PKC1^HA protein kinase assays, GST-Rho1 and GST-Cdc42 were eluted from the beads with reduced glutathione.
T1 sequence (P06780 2-206, one chain of several): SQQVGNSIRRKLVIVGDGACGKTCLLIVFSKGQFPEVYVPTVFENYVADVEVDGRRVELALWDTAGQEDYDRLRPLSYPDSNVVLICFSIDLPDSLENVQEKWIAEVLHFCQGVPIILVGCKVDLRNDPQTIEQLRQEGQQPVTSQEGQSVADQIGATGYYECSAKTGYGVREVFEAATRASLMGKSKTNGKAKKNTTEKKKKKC

[2] = test system: rho1 mutant strains YOC752 (rho1-2), YOC729 (rho1-3), YOC755 (rho1-5); assay: Drug sensitivity of conditional rho1 mutants; format: cell-based, Saccharomyces cerevisiae; conditions: 23° C.
1,3-β-glucan synthase = assay: Reconstitution of GS activity in rho1-3 membranes; format: biochemical, Saccharomyces cerevisiae; conditions: 37° C., 1 μg recombinant GTPase, 50 μM GTPγS
Method: FIGS. 6A-6C. GS activity from rho1 mutants (See reference of Example 3). FIG. 6A. GS activity is thermolabile in rho1^ts mutants. Crude extracts were made from cells growing at room temperature, and assayed for GS activity at the indicated temperatures in the presence of 50 μM GTPγS. FIG. 6B. Reconstitution of GS activity in rho 1-3 membranes with recombinant Rho1. GS activity in rho1-3 membrane fractions was measured at 37° C. in the presence of 1 μg of the indicated recombinant GTPase and 50 μM GTPγS (19). FIG. 6C. Reconstituted GS activity requires GTP. GS activity in wild-type membranes or rho1-3 membranes complemented with 1 μg of GST-Rho1 was measured at 37° C. in the presence of the indicated guanine nucleotide (20 μM). Results are expressed as percent activity relative to GTPγS.
18. Crude yeast extracts were prepared as described [Y. Kamada et al., (1995) Genes Dev. 9:1559], and stored at −80° C. in lysis buffer supplemented with 33% glycerol. Membrane fractions, where indicated, were obtained from crude extracts and 1,3-β-glucan synthase (GS) activity was measured as described in (2) with the following modifications: UDP-[^3H]glucose was used as the substrate and α-amylase (1 U/40 μl) was added to reaction mixtures to eliminate the contribution of [^3H]glucose incorporation into glycogen. For all GS assays, the mean and standard error for four experiments is shown.
19. […]

PKC1 [3] = molecular target: T2, PKC1 (Saccharomyces cerevisiae, UniProt P24583); assay: PKC1 protein kinase assay with synthetic Bck1 peptide; format: biochemical; conditions: with or without cofactors PS, DAG, Ca2+
T2 construct: made in house; host or cells: PKC1-HA immunoprecipitated from S. cerevisiae extract; GST-Rho1 from baculovirus-infected Sf9 cells
T2 sequence (P24583 1-1151): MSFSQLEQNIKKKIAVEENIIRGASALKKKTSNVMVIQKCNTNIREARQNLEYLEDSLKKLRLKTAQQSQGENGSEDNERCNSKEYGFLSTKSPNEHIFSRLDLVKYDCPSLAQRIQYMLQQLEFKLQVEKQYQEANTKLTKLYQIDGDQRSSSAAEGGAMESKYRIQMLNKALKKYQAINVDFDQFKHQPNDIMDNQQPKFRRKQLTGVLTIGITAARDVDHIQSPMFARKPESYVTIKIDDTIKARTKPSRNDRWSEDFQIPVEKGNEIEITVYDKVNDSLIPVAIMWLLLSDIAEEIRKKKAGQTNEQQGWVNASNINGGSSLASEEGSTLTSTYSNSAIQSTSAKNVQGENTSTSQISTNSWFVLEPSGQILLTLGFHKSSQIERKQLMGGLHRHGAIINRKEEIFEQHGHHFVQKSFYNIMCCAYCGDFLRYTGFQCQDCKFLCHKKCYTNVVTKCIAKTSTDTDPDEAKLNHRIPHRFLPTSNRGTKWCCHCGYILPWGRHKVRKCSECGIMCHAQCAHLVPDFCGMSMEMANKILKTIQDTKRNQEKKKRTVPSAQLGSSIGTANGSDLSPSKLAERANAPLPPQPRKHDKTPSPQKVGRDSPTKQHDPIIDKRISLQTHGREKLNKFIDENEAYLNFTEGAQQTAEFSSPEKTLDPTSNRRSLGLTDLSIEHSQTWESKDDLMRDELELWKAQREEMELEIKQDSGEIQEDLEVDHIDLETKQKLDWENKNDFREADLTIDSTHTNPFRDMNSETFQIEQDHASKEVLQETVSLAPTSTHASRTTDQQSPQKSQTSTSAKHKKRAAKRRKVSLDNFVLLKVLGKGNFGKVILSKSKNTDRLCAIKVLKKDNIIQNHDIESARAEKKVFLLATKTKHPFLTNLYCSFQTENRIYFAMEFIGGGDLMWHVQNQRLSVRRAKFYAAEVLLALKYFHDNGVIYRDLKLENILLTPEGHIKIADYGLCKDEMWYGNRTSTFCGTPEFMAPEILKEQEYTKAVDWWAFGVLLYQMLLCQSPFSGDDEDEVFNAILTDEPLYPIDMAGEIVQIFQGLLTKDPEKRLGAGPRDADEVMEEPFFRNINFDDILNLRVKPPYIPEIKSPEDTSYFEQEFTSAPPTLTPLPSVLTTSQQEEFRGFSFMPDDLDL
Method: as §1, §2, §3

CaGGTase = assay: Km determination, prenylation (TCA precipitation) assay; format: biochemical, Candida
Method: Briefly, a DEAE FF column is used for the first chromatographic step. The fractions from the columns in the purification are assayed for both GGTase and Ftase. For GGTase, 0.2 μM CaRho and 0.5 μM GGPP are used. For the FTase assay, 0.5 μM N-ras and 0.5 μM FPP are used. Both reactions are for 20-30 minutes at 37° C. The GGTase activity and FTase activity overlapped on the intial chromatography step, although the FTase activity was slightly shifted to the later fractions. The majority of the GGTase activity is pooled and then run on a SourceQ column, which separates the FTase and GGTase activities.
The fractions from the columns in the purification are being assayed for both GGtase and FTase. For GGTase 0.2 uM CaRho and 0.5 uM GGPP are used. For the FTase assay 0.5 uM N-ras and 0.5 uM FPP are used. Both reactions are for 20-30 minutes at 37°.
The second column (20 mL) Source Q separated the FTase from the GGTase The salt gradient was stretched out for 10 column volumes and 3.5 mL fractions were collected. Fraction 16 and 17 were used for Km and IC50 studies by Marc P.

[Ca+2] [Ca^2+] was tested, and the “Stimulation of PKC1 by cofactor” value (PKC1 [1]) was “No additional stimulation”.
For O=S(=O)(O)c1cc(Nc2nc(Nc3ccccc3)nc(N(CCO)CCO)n2)ccc1/C=C/c1ccc(Nc2nc(Nc3ccccc3)nc(N(CCO)CCO)n2)cc1S(=O)(=O)O [Calcofluor white], the “Sensitivity of rho1 mutants to drug” value [2] was “hypersensitivity”.
With CCCCCCCCCCCCCC(=O)O[C@@H]1[C@@H](C)[C@@]2(O)[C@@H](C=C(CO)C[C@]3(O)C(=O)C(C)=C[C@@H]23)[C@@H]2C(C)(C)[C@]12OC(C)=O [PMA, phorbol myristate acetate] the “Stimulation of PKC1 by cofactor” value (PKC1 [1]) was “No additional stimulation”.
With “GST-Rho1: recombinant glutathione-S-transferase-Rho1 fusion purified from Sf9 insect cells” the “Restoration of GS activity” value (1,3-β-glucan synthase) was “restored fully” and the “Stimulation of PKC1 activity by recombinant GTPase” value (PKC1 [3]) was “did not stimulate PKC1 activity alone”.
diacylglycerol [DAG] was tested, and the “Stimulation of PKC1 by cofactor” value (PKC1 [1]) was “No additional stimulation”.
In the case of echinocandin B, the “Sensitivity of rho1 mutants to drug” value [2] is reported as “hypersensitivity”.
“huRhoA: human RhoA GTPase, protein substrate” was tested, and the “Km Values” (CaGGTase) was “Nor is human RhoA a substrate”.
In the case of phosphatidylserine, the “Stimulation of PKC1 by cofactor” value (PKC1 [1]) is reported as “strongly activated” and the “Concentration of PS that fully activated PKC1” value (PKC1 [1]; in the presence of GTPγS-bound GST-Rho1, data not shown) is reported as no more than 8 µg/mL.
